# Results reported in patent US7547804B2, “Compounds, compositions, and methods employing same” (Myriad Genetics, Inc., priority 2002, dated 2009).
# Tested on: LNCaP cell lines
# Assay: WST-1 Cell Proliferation and Viability Assay
# Type: cell-based
# Details: Homo sapiens; LNCaP cells, compound incubation 18-72 hours
# Protocol: WST-1 Cell Proliferation and Viability Assay
# Cell proliferation and cell viability was assessed using the tetrazolium salt WST-1 (Roche Applied Science, Indianapolis Ind.). The assay is based on the cleavage of WST-1 (light red) by mitochondrial dehydrogenase causing the formation of formazan (dark red), which can be measured on an optical density (O.D.) reader. LNCaP cell lines were plated in 96 well tissue culture plates (Corning Costar, N.Y.) at a density of 5000 cells/well in 150 μl complete media phenol-red free (RPMI-1640 [Invitrogen, Carlsbad Calif.] and 10% fetal calf serum). This plate is termed the assay plate. After the cells are plated, they are then incubated overnight at 37 degrees Celsius in a humidified chamber containing 5% CO2 (incubator).
# Compounds are added to the assay plate in 50 μl of complete media and 0.4% DMSO (v:v) making the final DMSO concentration 0.1%. The assay plate is then returned to the incubator for 18-72 hours. WST-1 reagent is then added (20 μl/well) and the plate is placed on an ELISA plate shaker for 30 minutes at room temperature. Plates are then transferred back to the incubator for an additional 3 hours. Plates are then read on a 96 well plate O.D. reader at A490-A650.
row,EC50 [µM],Compound
1,7,COc1ccccc1CCOc1cccc(NC(=O)c2cc(-c3cccc4ccccc34)ccc2O)c1 [Compound 338]
2,4,CCN(Cc1ccncc1)c1ccc(NC(=O)c2cc(Cl)ccc2O)c(OCCc2cccc(C(F)(F)F)c2)c1 [Compound 377]
3,2,O=C(Nc1ccc(Cl)cc1OCCc1ccc(Cl)cc1)c1cc(Cl)ccc1O [Compound 250]
4,1.8,Cc1cccc(COc2ccc(C(F)(F)F)cc2NC(=O)c2cc(Cl)ccc2O)c1 [Compound 307]
5,16.3,CN1CCN(c2ccc(NC(=O)c3cc(Cl)ccc3O)c(OCCc3cccc(C(F)(F)F)c3)c2)CC1 [Compound 358]
6,0.9,O=C(Nc1cc(C(F)(F)F)ccc1OCCc1ccccc1Cl)c1cc(Cl)ccc1O [Compound 247]
7,2.2,O=C(Nc1cc(Cl)ccc1OCc1cccc(C(F)(F)F)c1)c1cc(Cl)ccc1O [Compound 329]
8,16,COc1ccccc1CCOc1cccc(NC(=O)c2cc(-c3ccccc3Oc3ccccc3)ccc2O)c1 [Compound 344]
9,2,Cc1ccc(COc2ccc(Cl)cc2NC(=O)c2cc(Cl)ccc2O)cc1 [Compound 306]
10,10,CS(=O)(=O)c1ccc(CCOc2ccc(Cl)cc2NC(=O)c2cc(Cl)ccc2O)cc1 [Compound 286]
11,4,O=C(Nc1cccc(OC2CCCCC2c2ccc(Cl)cc2)c1)c1cc(Cl)ccc1O (centres unmarked) [Compound 282]
12,9,COc1ccccc1CCOc1cccc(NC(=O)c2cc(-c3cccc(C(C)C)c3)ccc2O)c1 [Compound 345]
13,0.83,COC(=O)c1ccc(COc2ccc(C(F)(F)F)cc2NC(=O)c2cc(Cl)ccc2O)cc1 [Compound 308]
14,16,COc1ccccc1CCOc1cccc(NC(=O)c2cc(-c3ccc(C)cc3)ccc2O)c1 [Compound 340]
15,8,O=CNc1cccc(C(=O)Nc2cc(C(F)(F)F)ccc2Oc2ccc(Cl)c3ccccc23)c1O [Compound 269]
16,0.9,O=C(Nc1cc(C(F)(F)F)ccc1OCCc1ccsc1)c1cc(Cl)ccc1O [Compound 245]
17,3.1,CS(=O)(=O)c1ccc(CCOc2ccc(C(F)(F)F)cc2NC(=O)c2cc(Cl)ccc2O)cc1 [Compound 287]
18,0.9,O=C(Nc1cc(C(F)(F)F)ccc1OCCC1CC1)c1cc(Cl)ccc1O [Compound 265]
19,0.9,O=C(Nc1cc(C(F)(F)F)ccc1OCCc1cccs1)c1cc(Cl)ccc1O [Compound 244]
20,3,O=C(Nc1cc(OC2CCCCC2c2ccccc2)ccc1Cl)c1cc(Cl)ccc1O (centres unmarked) [Compound 281]
21,3,CCOCCOCCOc1ccc(C(F)(F)F)cc1NC(=O)c1cc(Cl)ccc1O [Compound 298]
22,16,COc1ccccc1CCOc1cccc(NC(=O)c2cc(-c3cccs3)ccc2O)c1 [Compound 356]
23,17.5,O=C(NCc1cc(F)cc(C(F)(F)F)c1)c1cc(Cl)ccc1O [Compound 320]
24,4,O=C(Nc1cc(C(F)(F)F)ccc1NCCc1ccccc1Cl)c1cc(Cl)ccc1O [Compound 276]
25,3,CC1CN(c2ccc(NC(=O)c3cc(Cl)ccc3O)c(OCCc3ccccc3C(F)(F)F)c2)CC(C)O1 (centres unmarked) [Compound 241]
26,0.5,O=C(Nc1cc(C(F)(F)F)ccc1OCCc1cccc(Cl)c1)c1cc(Cl)ccc1O [Compound 248]

# The remaining lines, values behind:
row,Compound,EC50 [µM]
1,Cc1cc(C)c(OCCc2cccc(C(F)(F)F)c2)c(NC(=O)c2cc(Cl)ccc2O)c1 [Compound 159],2
2,CC(C)Cc1ccc(CNc2cccc(NC(=O)c3cc(Cl)ccc3O)c2)cc1 [Compound 13],18
3,O=C(Nc1cc(C(F)(F)F)ccc1OCCc1ccc(C(F)(F)F)cc1)c1cc(Cl)ccc1O [Compound 160],0.7
4,Cc1cc(C)c(OCCc2ccccc2C(F)(F)F)c(NC(=O)c2cc(Cl)ccc2O)c1 [Compound 131],2
5,O=C(Nc1cccc(NCc2ccccc2)c1)c1cc(Cl)ccc1O [Compound 28],31
6,Cc1ccc(C(=O)Nc2cccc(OCCc3ccccc3)c2)c(O)c1 [Compound 211],22
7,Cc1cccc(-c2cccc(CNC(=O)c3cc(Cl)ccc3O)c2)c1 [Compound 145],17
8,Cc1ccc(O)c(C(=O)Nc2cccc(OCCc3ccccc3)c2)c1 [Compound 212],20
9,COc1ccccc1CCOc1cccc(NC(=O)c2cc(C)ccc2O)c1 [Compound 209],17
10,O=CNc1cccc(C(=O)Nc2cccc(OCCc3ccccc3)c2)c1O [Compound 5],5
11,O=C(Nc1cccc(OCCc2ccccc2)c1)c1ccccc1O [Compound 197],26
12,Cc1oc(-c2ccccc2)nc1CCOc1ccc(Cl)cc1NC(=O)c1cc(Cl)ccc1O [Compound 132],5
13,O=C(Nc1cccc(C(F)(F)F)c1)c1cc(Cl)ccc1O [Compound 56],1
14,O=C(Nc1cccc(NCc2ccc3c(c2)OCO3)c1)c1cc(Cl)ccc1O [Compound 11],40
15,O=C(Nc1cc(Cl)ccc1OCCc1ccccc1C(F)(F)F)c1cnc2cc(C(F)(F)F)ccc2c1O [Compound 167],6
16,CCC(COc1ccc(C)c(NC(=O)c2cc(Cl)ccc2O)c1)c1ccccc1 (centres unmarked) [Compound 128],2
17,CC(COc1cccc(NC(=O)c2cc(Cl)ccc2O)c1)c1ccccc1 (centres unmarked) [Compound 19],7

row,Compound,EC50 [µM]
1,CN(C)c1ccc(CCOc2ccc(Cl)cc2NC(=O)c2cc(Cl)ccc2O)cc1 [Compound 108],3
2,O=C(Nc1cccc(Cl)c1)c1cc(Cl)ccc1O [Compound 94],3
3,CC(C)c1ccc(CCOc2ccc(Cl)cc2NC(=O)c2cc(Cl)ccc2O)cc1 [Compound 100],1
4,O=C(Nc1cccc(OCCc2ccccc2)c1)c1cc(F)ccc1O [Compound 184],15
5,O=CNc1cc(Cl)cc(C(=O)Nc2cccc(OCCc3ccccc3)c2)c1O [Compound 124],8
6,O=C(Nc1cc(Cl)ccc1OCCc1cccc(C(F)(F)F)c1)c1cc(Cl)ccc1O [Compound 83],0.8
7,COc1ccccc1CCOc1cccc(NC(=O)c2ccc(F)cc2O)c1 [Compound 180],12
8,O=C(Nc1cccc(Cl)c1OCCc1ccccc1)c1cc(Cl)ccc1O [Compound 154],4
9,O=C(NCCc1ccc(Oc2ccccc2)cc1)c1cc(Cl)ccc1O [Compound 54],13
10,O=C(NCc1cccc(-c2ccccc2)c1)c1ccc(F)cc1O [Compound 189],30
11,CC(Cc1ccccc1)Oc1cccc(NC(=O)c2cc(Cl)ccc2O)c1 (centres unmarked) [Compound 95],6
12,Cc1ccccc1CCOc1ccc(Cl)cc1NC(=O)c1cc(Cl)ccc1O [Compound 76],1
13,Cc1c(NC(=O)c2cc(Cl)ccc2O)cccc1OCCc1ccccc1 [Compound 48],7
14,O=C(Nc1cc(Cl)ccc1OCCc1cccc(F)c1)c1cc(Cl)ccc1O [Compound 111],1
15,Cc1cc(C)c(CCOc2ccc(Cl)cc2NC(=O)c2cc(Cl)ccc2O)c(C)c1 [Compound 81],1
16,Cc1ccc(CCOc2cccc(NC(=O)c3cc(Cl)ccc3O)c2)cc1 [Compound 59],10

# Same assay, conditions: Homo sapiens; LNCaP cells; flagged "Estimated": based on actual data at different concentrations
row,Compound,EC50 [µM]
1,O=C(NCCc1ccccc1Oc1ccccc1)c1cc(Cl)ccc1O [Compound 118],30
2,O=C(c1ccccc1)c1ccc(NC(=O)c2cc(Cl)ccc2O)cc1 [Compound 25],20
3,O=C(NCc1cccc(-c2ccccc2)c1)c1cc(Cl)ccc1O [Compound 238],30
